Reference: publication PMC5766233, “Ternary copper(II) complex: NCI60 screening, toxicity studies, and evaluation of efficacy in xenograft models of nasopharyngeal carcinoma” (PLoS ONE, 2018)

How the values were obtained:
rat primary hepatocytes = experiment: Cytotoxicity in rat primary hepatocytes (resazurin); settings: 72 h
CYP3A = experiment: Cytochrome P450 induction assay in rat primary hepatocytes, CYP3A; settings: for Fold induction CYP3A: 3 days; for % of positive control CYP3A: positive control dexamethasone 30 μM
Method: Assessment for potential drug-drug interaction is an important component of drug discovery and development. […] Most drug-drug interaction and drug metabolism occur in the hepatic cytochrome P450 (CYP) system. CYP is a superfamily of metabolizing enzymes located primarily in hepatocytes. Inhibition or induction of CYP enzymes is a mechanism for drug-drug interaction. In the current work, the inhibition and induction of CYP enzymes were investigated. CYP induction assay was performed using rat primary hepatocytes for CYP […] isoforms with dexamethasone (30 μM) and 3-methyl cholanthrene (1.0 μM) as […], respectively. Cytochrome CYP 3A enzymes are considered to be the most important enzymes catalyzing drug metabolism with broad substrate specificity while CYP 1A enzymes play key roles in the metabolic activation of aromatic hydrocarbons to carcinogenic metabolites. In orally administered anticancer drug, gut wall CYP 3A enzyme is considered important for drug-drug interactions and xenobiotic interactions.
5.0 x 10^5 viable rat hepatocytes were seeded into collagen-coated 24 well plate in 500 μL William’s medium E (Sigma Aldrich) per well and they were incubated at 37°C in a 5% CO2 humidified incubator. After an overnight incubation, the medium in each designated well was replaced with 500 μL of fresh medium containing the specified concentration of Cu(II) complex (1.0, 0.3 and 0.1 μM), dexamethasone (30 μM), 3-methyl cholanthrene (1.0 μM) as reference standards (positive controls) or fresh medium alone (vehicle control). The cells were treated for 3 consecutive days with daily replacement of fresh medium containing compounds. After incubation, the cells were washed with 1X HBSS and the medium was replaced with 300 μL of probe substrates (Midazolam at 10 μM and Phenacetin at 100 μM; prepared in HBSS). The cells were then incubated for a further 20 min at 37°C with mild shaking. The reaction was terminated by adding 600 μL of cold acetonitrile followed by scraping of cells. The above mixture in each well was transferred to a tube, and these tubes were centrifuged at 10,000 rpm for 10 min. The concentration/level of metabolites in the supernatant was monitored by LC-MS/MS.
The extent of fold induction as well as percent of positive control was calculated relative to basal control (untreated) by using the following formula.
(§1) %Activity=(averagearearatiooftreated/averagearearatioofbasalcontrol)x100
Foldinduction=%activity/100%ofpositivecontrol=foldinduction(Cu(II)treated)/foldinduction(referencestandardtreated)x100

CYP 3A4 = target: T1, CYP 3A4 (Homo sapiens, UniProt P08684); experiment: CYP450 inhibition assay, pooled human liver microsomes; assay type: in vitro ADME; settings: probe midazolam
T1 construct: tissue Sekisui Xeno Tech, LLC; host or cells: pooled human liver microsomes
T1 sequence (P08684 whole entry): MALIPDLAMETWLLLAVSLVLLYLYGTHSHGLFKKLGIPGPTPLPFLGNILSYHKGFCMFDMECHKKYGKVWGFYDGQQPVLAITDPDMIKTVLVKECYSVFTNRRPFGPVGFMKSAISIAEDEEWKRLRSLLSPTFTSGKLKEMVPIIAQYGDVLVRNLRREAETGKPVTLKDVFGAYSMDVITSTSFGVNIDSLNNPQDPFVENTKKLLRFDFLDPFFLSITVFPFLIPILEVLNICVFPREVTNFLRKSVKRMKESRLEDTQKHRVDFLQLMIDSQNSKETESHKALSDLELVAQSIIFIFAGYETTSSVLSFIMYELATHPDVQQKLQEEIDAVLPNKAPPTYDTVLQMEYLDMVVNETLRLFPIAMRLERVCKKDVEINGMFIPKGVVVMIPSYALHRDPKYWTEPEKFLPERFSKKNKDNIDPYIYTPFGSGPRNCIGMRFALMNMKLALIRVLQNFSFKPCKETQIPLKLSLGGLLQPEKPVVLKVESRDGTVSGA
Method: (§2) In the CYP inhibition assay, human liver microsomes were incubated with the Cu(II) complex or reference standard. The inhibitory effects of these compounds were investigated against the major CYP isoforms namely 1A2, 2C9, 2C19, 2D6, 2B6, 2C8 and 3A4 with their respective isoform probe substrates in one reaction mixture (pooled probe substrate format using LC-MS/MS).
(§3) Pooled human liver microsomes (Sekisui Xeno Tech, LLC., Kansas City, KS, USA) were incubated with different concentrations of Cu(II) complex or reference standards in buffer containing 0.1% DMSO for 10 min at 37°C and the residual enzyme activity was measured using pooled probe substrates method by pooled LC-MS/MS. Briefly, incubation mixtures were prepared in a total volume of 200 μL with final component concentrations as follows: 0.1 M potassium phosphate buffer (pH 7.4), 1.5 mM NADPH, and 0.25 mg/ml HLM. […] After 20 min of incubation, the reactions were terminated by addition of 200 μL ice-cold acetonitrile (Rankem, Avantor Performance Materials India Limited, Andhra Pradesh, India) containing telmisartan and carbamazepine as internal standards (all probe substrates and standards were from Sigma Aldrich). Each reaction mixture was centrifuged at 3,500 rpm for 5 min and the supernatant was subjected to LC-MS/MS analysis. The percent inhibition was calculated using the following equation: %Inhibition=100‑[(activityintestwells/activityinbasalcontrolwells)×100]

CYP 2D6 = target: T2, CYP 2D6 (Homo sapiens, UniProt P10635); experiment: as above; assay type: in vitro ADME; settings: probe dextromethorphan
T2 construct: tissue Sekisui Xeno Tech, LLC; host or cells: pooled human liver microsomes
T2 sequence (P10635 whole entry): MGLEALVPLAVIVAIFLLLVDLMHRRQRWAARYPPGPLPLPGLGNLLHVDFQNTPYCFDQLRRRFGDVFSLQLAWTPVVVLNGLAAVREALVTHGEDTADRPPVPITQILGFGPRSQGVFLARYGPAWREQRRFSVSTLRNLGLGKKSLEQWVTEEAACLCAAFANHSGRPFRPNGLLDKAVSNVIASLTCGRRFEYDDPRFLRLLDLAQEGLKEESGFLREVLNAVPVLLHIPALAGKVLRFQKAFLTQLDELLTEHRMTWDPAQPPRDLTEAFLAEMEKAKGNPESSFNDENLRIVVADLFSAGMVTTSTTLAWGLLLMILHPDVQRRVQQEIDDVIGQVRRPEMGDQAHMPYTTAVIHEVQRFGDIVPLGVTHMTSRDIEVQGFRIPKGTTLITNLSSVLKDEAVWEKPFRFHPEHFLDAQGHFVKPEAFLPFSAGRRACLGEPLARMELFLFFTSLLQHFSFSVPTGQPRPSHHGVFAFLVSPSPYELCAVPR
Method: as §2, §3

[1] = test system: cervical, ovarian, lung, breast, lymphoma, leukemia, colorectal carcinoma and NPC cell lines; parameters: method as in PMID 24549332; settings: 24 h; HeLa, SKOV3, A549, PC9, MCF7, Namalwa, HL60, SW480, SW48, HCT118, HONE1, HK1, C666-1; cited from earlier work
CYP 2C9 = target: T3, CYP 2C9 (Homo sapiens, UniProt P11712); experiment: CYP450 inhibition assay, pooled human liver microsomes; assay type: in vitro ADME; settings: probe tolbutamide
T3 construct: Pooled human liver microsomes (Sekisui Xeno Tech, LLC., Kansas City, KS, USA) were incubated; tissue Sekisui Xeno Tech, LLC; host or cells: pooled human liver microsomes
T3 sequence (P11712 whole entry): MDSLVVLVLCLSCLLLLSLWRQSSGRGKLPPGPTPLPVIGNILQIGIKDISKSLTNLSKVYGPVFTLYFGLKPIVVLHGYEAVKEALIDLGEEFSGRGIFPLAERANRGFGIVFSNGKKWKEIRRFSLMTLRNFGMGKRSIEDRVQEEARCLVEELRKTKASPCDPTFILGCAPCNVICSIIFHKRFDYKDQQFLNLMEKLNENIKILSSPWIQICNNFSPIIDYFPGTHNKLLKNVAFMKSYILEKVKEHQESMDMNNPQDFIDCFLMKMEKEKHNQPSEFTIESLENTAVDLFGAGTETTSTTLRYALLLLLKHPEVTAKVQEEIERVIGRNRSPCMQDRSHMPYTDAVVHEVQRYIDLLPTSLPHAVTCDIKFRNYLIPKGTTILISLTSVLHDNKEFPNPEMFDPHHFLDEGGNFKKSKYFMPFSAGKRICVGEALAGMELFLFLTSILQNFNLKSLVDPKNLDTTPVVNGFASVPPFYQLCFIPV

CYP1A = experiment: Cytochrome P450 induction assay in rat primary hepatocytes, CYP1A; assay type: in vitro ADME; settings: for Fold induction CYP1A: 3 days; for % of positive control CYP1A: positive control 3-methyl cholanthrene 1.0 μM
From the text: as §1

[2] = Subacute toxicity, daily for 14 days; assay type: in vivo, NOD scid gamma female mice; settings: 4 and 6 mg/kg ip daily for 14 days
Method: For subacute toxicity study, three groups of three NSG female mice each were used. Using the formula from NCI, the low dose and high dose were calculated from the MTD value (17.5 mg/kg estimated above) and these were 4 and 6 mg/kg respectively. Mice in the first two groups were administered intraperitoneally with Cu(II) complex at doses of 4 and 6 mg/kg daily respectively for 14 days, while those in the control group received an equal volume of normal saline. […] No mortality was observed during the course of the study. All mice remained healthy with no obvious differences being noted in the general behavior, physical activities or clinical conditions with respect to the control group. The accumulative intraperitoneal doses administered in these groups were 56.0 and 84.0 mg/kg of the Cu(II) complex, respectively.
Mice were divided into three groups of 3 mice each. The Cu(II) complex was administered intraperitoneally at the doses of 4 and 6 mg/kg daily for 14 days, while the control group received an equal volume of normal saline. […] Signs of toxicity, mortality, body weight, food consumption and water intake were monitored and recorded daily. Adverse effects such as rapid or consistent body weight loss reaching 20%, blood stained discharges, labored breathing, paralysis, anemia, and other signs and symptoms mentioned in the acute toxicity study, was used as criteria for termination. At the end of the experiment, the mice were sacrificed and the major organs including the heart, lung, liver, kidney and spleen were examined for gross and histopathological changes.

For CC(C)(N)C(=O)[O-].O.O=[N+]([O-])[O-].[Cu+2].c1cnc2c(c1)ccc1cccnc12 [Cu(II) complex, [Cu(phen)(C-dmg)(H2O)]NO3], the “concentrations at which cytotoxicity is exhibited” value (rat primary hepatocytes) was “over 3 μM”, the IC50 (rat primary hepatocytes; read-out: IC50 (cytotoxic concentration that kills 50% of the cells), resazurin assay) was 4.7 µM and the “Fold induction CYP3A” value (CYP3A; 0.1 μM) was 1.3. For the same molecule, the “% of positive control CYP3A” value (CYP3A; 0.1 μM) was 4.7%, the “Fold induction CYP3A” value (CYP3A; 0.3 μM) was 1.2 and the “% of positive control CYP3A” value (CYP3A; 0.3 μM) was 4.3%. For the same molecule, the “Fold induction CYP3A” value (CYP3A; 1.0 μM) was 0.8, the Cell death observed (CYP3A; 1.0 μM, rat hepatocytes in the induction assay) was “** Cell death observed (approximately 30%)” and the “% of positive control CYP3A” value (CYP3A; 1.0 μM) was 3.0%. The “induction, % of positive control, CYP3A” value (CYP3A; 0.1-1.0 μM) was less than 13%, the IC50 (CYP 3A4) was 5.46 µM and the IC50 (CYP 2D6) was 10.2 µM. The IC50 [1] was 1.7 to 19 µM, the IC50 (CYP 2C9) was 8.56 µM and the “Fold induction CYP1A” value (CYP1A; 0.1 μM) was 1.1. The “% of positive control CYP1A” value (CYP1A; 0.1 μM) was 10.1%, the “Fold induction CYP1A” value (CYP1A; 0.3 μM) was 1.4 and the “% of positive control CYP1A” value (CYP1A; 0.3 μM) was 13.0%. For the same molecule, the “Fold induction CYP1A” value (CYP1A; 1.0 μM) was 0.8, the “% of positive control CYP1A” value (CYP1A; 1.0 μM) was 7.4% and the “induction, % of positive control, CYP1A” value (CYP1A; 0.1-1.0 μM) was less than 13%. The “Histopathological examination, all organs” value [2] was “no significant morphological changes”, the body weight [2] was “no significant reduction of body weight” and the Mortality ([2]; 14 days further observation) was “No mortality”. For the same molecule, the “weight of vital organs” value ([2]; day 28) was “not significantly affected” and the site of injections ([2]; disappeared during the 14-day observation) was “some inflammation and induration”.
